# Data reported in ChEMBL document CHEMBL5518238, “Structure-Activity Relationship (SAR) Studies of Novel Monovalent AR/AR-V7 Dual Degraders with Potent Efficacy against Advanced Prostate Cancer” (J Med Chem, 2024).
# Activity calls are given as the source filed them. The rule behind the calls is not given here.
# What was measured:
# CWR22R [1] = test: cells; format: functional, cell-based; details: Homo sapiens, 22Rv1, 48 h
# Description: Antiproliferative activity against AR/AR-V7 positive human 22Rv1 cells assessed as inhibition of cell growth incubated for 48 hrs by CCK-8 assay
# DU-145 = test: Antiproliferative activity against AR-negative human DU-145 cells assessed as inhibition of cell growth incubated for 48 hrs by CCK-8 assay; format: functional, cell-based; details: DU-145, 48 h
# [2] = tested on: Androgen receptor (Homo sapiens), P10275 [UNDEFINED MUTATION]; test: (§1) Induction of AR-V7 degradation in human 22Rv1 cells incubated for 24 hrs by Western blot analysis; format: cell-based; details: dose 1-10 µM
# Androgen receptor = Androgen receptor (Homo sapiens, UniProt P10275); test: as §1; format: cell-based
# [3] = biological target: T1, Androgen receptor (Homo sapiens) (UniProt P10275); test: Induction of AR degradation in human LNCaP cells at 5 uM by Western blot analysis; format: cell-based; details: time <= 24.0 hrs, TDE = time-dependent effect
# T1 sequence (whole entry): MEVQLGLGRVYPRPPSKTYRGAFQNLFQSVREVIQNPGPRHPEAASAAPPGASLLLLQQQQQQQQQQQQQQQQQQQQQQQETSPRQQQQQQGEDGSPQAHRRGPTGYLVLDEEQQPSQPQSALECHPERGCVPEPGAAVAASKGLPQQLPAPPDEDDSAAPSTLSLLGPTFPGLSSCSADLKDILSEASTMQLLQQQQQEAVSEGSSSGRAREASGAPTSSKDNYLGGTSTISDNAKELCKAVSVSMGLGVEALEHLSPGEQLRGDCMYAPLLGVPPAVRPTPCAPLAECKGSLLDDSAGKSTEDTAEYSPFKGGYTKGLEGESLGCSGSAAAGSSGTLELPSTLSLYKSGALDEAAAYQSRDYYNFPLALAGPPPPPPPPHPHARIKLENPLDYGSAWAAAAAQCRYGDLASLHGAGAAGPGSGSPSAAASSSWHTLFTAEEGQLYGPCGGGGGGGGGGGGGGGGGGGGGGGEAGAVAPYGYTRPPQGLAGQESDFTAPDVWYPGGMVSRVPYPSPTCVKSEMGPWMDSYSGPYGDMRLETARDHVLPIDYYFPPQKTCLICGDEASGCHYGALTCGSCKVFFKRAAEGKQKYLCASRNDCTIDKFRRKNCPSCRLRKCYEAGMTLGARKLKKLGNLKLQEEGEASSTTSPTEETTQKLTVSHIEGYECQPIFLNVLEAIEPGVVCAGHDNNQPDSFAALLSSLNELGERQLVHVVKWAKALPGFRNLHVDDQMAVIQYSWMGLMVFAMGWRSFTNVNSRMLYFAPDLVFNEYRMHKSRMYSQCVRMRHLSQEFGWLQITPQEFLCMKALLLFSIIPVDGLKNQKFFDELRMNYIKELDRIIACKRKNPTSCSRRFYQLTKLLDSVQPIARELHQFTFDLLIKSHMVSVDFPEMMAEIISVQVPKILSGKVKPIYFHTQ
# [4] = biological target: T1, Androgen receptor (Homo sapiens); test: Binding affinity to AR-NTD in human 22Rv1 cels by SPR analysis
# CWR22R [5] = test: Drug localization in nucleus of human 22Rv1 cells at 5 uM incubated for 24 hrs by DAPI staining based immunofluorescence analysis; format: functional, cell-based
# CWR22R [6] = test: Downregulation of ABHD2 mRNA expression in human 22Rv1 cells at 10 uM incubated for 24 hrs by qRT-PCR analysis; format: functional, cell-based
# CWR22R [7] = test: Downregulation of BCHE mRNA expression in human 22Rv1 cells at 10 uM incubated for 24 hrs by qRT-PCR analysis; format: functional, cell-based
# CWR22R [8] = test: Downregulation of STEAP4 mRNA expression in human 22Rv1 cells at 10 uM incubated for 24 hrs by qRT-PCR analysis; format: functional, cell-based
# CWR22R [9] = test: Induction of cell cycle arrest in human 22Rv1 cells assessed as accumulation of cells at G0/G1 phase at 1 uM incubated for 24 hrs by DAPI staining based flow cytometric analysis (reference value: 26.3 %); format: functional
# CWR22R [10] = test: Induction of apoptosis in human 22Rv1 cells at 1 uM incubated for 24 hrs by Annexin V-FITC/PI staining based flow cytometric analysis (reference value: 3.70 %); format: functional
# CWR22R [11] = test: Induction of apoptosis in human 22Rv1 cells assessed as effect on Caspase-3 level incubated for 24 hrs by Western blot analysis; format: functional, cell-based; details: dose <= 10.0 µM
# CWR22R [12] = test: Induction of apoptosis in human 22Rv1 cells assessed as effect on Bcl-xL level incubated for 24 hrs by Western blot analysis; format: functional, cell-based; details: dose <= 10.0 µM
# [13] = Stability in mouse plasma assessed as half life measured after 60 mins; format: ADME, cell-free
# [14] = MRT (0 to t) in Sprague-Dawley rat at 5 mg/kg, iv by LC-MS/MS analysis; format: ADME, organism-based; details: in vivo
# [15] = MRT (0 to infinity) in Sprague-Dawley rat at 50 mg/kg, po by LC-MS/MS analysis; format: ADME, organism-based; details: in vivo
# [16] = Toxicity in NSG mouse xenografted with human 22Rv1 cells assessed as heart damage t at 30 mg/kg, IG administered once daily for 21 days by H and E staining based analysis; format: organism-based, CWR22R; details: in vivo, po, 504 h, time 21 day
compound,measurement,setting,value
CC1(C)C(=O)N(c2ccc(C#N)c(C(F)(F)F)c2)C(=O)N1CCNc1ccc(F)c2ncccc12,IC50,CWR22R [1],0.9 µM
same,IC50,DU-145,> 50 µM
same,Activity,[2],Dose-Dependent Effect
same,DC50,Androgen receptor,2.64 µM
same,Activity,[3],Tde
same,Activity,[4],Active
same,Activity,CWR22R [5],Active
same,Activity,CWR22R [6],Active
same,Activity,CWR22R [7],Active
same,Activity,CWR22R [8],Active
same,Activity,CWR22R [9],41.5%
same,Activity,CWR22R [10],11.94%
same,Activity,CWR22R [11],Dose-Dependent Effect
same,Activity,CWR22R [12],Dose-Dependent Effect
same,half-life,[13],4.78 h
same,MRT last,[14],1.3 h
same,MRT inf,[15],4.1 h
same,Activity,[16],Non-Toxic
